Data as given in US20160262390A1, “FIELD APPLICATION OF SUGARS TO INCREASE CROP YIELD” (Minn-Dak Farmers Cooperative, priority 2015, published 2016).

How the values were obtained:
corn = assay: Pre-planting sugar application on corn, Hickson; type: in vivo; details: for Yield / Yield Increase Compared to Check Average: ND; for number of treatments showing yield improvement compared to check average: six rates (25-250 pounds/Acre) per sugar, thirty in all
Experimental: (§1) The field trials were conducted simultaneously in two different planting locations for each of the crops. One location was near the community of Foxhome in Wilkin County, Minnesota (hereafter referred to as “Foxhome”) while the second location was near the community of Hickson in Cass County, North Dakota (hereafter referred to as “Hickson”). The Foxhome and Hickson locations are on opposite sides of the Red River along the border of Minnesota and North Dakota and separated by a distance exceeding 40 miles. Generally, the Foxhome location has heavier clay loam soil conditions while Hickson has sandy loam soil conditions.
(§2) At each of the Foxhome and Hickson locations, a total of thirty two (32) treatments were conducted for each crop (sugarbeets, soybeans, corn, wheat). Each treatment was replicated four times arranged in a Randomized Complete Block (RCB) Design in the same field. Each replication consisted of a plot measuring twenty five (25) feet in length and eleven (11) feet in width. In selecting the particular seed types for evaluation, popular commercial varieties to the region were utilized. For the row crops (sugarbeets, soybeans, corn) each replication included a width of six (6) rows with twenty two (22) inch row spacing and having a row length of twenty five (25) feet. The wheat was planted in accordance with standard commercial practices. To reduce/eliminate any treatment impacts between adjacent plots for the crops, only the four (4) interior rows of each plot were treated and evaluated for row crops, while for wheat, only the interior 7.33 feet of each plot were treated and evaluated. With the exception of the treatment program applied to the individual plots, which will be discussed below, conventional commercial growing practices for each planting location were otherwise followed during the field trials. While the individual plots at the same location, Hickson or Foxhome, experienced essentially the same growing conditions throughout the season, there were various differences associated with localized precipitation, general growing conditions, soil classification and the like, which contributed to performance differences between the Hickson and Foxhome locations.
(§3) The treatment regimen at each location for each of the tested crops included two (2) untreated treatments (Treatments 31 and 32) in which no sugar was applied and constitute the control elements. […] Six (6) treatments (Treatments 13-18) included the liquid application of high fructose corn syrup (hereafter “HFCS”) at varying rates. Six treatments (Treatments 19-24) included the liquid application of dextrose (hereafter “LIQDEX”) at varying rates. Six (6) treatments (Treatments 25-30) included the application of powdered cellulose (hereafter “POWCEL”) at varying rates. For the sugar applied in a solid form, granulated or powdered, field application was conducted via conventional broadcast spreading. For the sugar applied in a liquid form, a liquid concentrate was mixed and diluted with water in a tank and a conventional sprayer was configured such that the liquid was sprayed so as to have the same sugar equivalent (measured in pounds/per acre) as the sugar in solid form. Regardless of whether the sugar was applied as a solid or liquid, the sugar was applied directly onto the soil before spring tillage, lightly worked into the ground and followed by planting of the crop seed in the treated ground. A summary of application rates for each plot treatments are contained in Table 7 below and were used consistently with each of the crops (sugarbeets, soybeans, corn, wheat).
(§4) To test the impact of pre-planting application rates and sugar source on corn, identical field trials using Peterson Farms brand corn seed were conducted at the Foxhome and Hickson locations. Planting of the corn seed and harvest of the corn were conducted on the same dates so as to have essentially the same growing season. […]

wheat = assay: Pre-planting sugar application on wheat, Foxhome; type: in vivo; details: for Yield / Yield Increase Compared to Check Average: MN; for number of treatments showing yield improvement compared to check average: six rates (25-250 pounds/Acre) per sugar, thirty in all
Experimental: as §1, §2, §3
as §4, with “wheat,” for “corn,”, “Westbred Mayville wheat” for “Peterson Farms brand corn”, “wheat” for “corn”

[1] = tested on: microflora that are present in the soil; assay: Solvita Soil CO2-Burst test of pre-emergent soil samples, soybean trial in Hickson
Experimental: In an attempt to quantify this boost, soil samples were taken during some of the previously discussed trials. These samples were tested using a standard Solvita Soil CO2-Burst Test Kit to generate measurements associated with CO2 respiration which can be used as an indicator of active soil carbon, soil microbial biomass and the potential for nutrient release beneficial to crop production. Generally, the higher the measured levels of CO2, the more advantageous the soil is for crop production.
The results of the CO2-Burst Testing are summarized in Table 17 below (using the replication designations from Table 7): […]

## OC[C@H]1O[C@@](CO)(O[C@H]2O[C@H](CO)[C@@H](O)[C@H](O)[C@H]2O)[C@@H](O)[C@@H]1O [LIQSUC, sucrose]
corn; pre-planting 25 pounds/Acre
  Yield: 163.69 Bushels/Acre
  Yield Increase Compared to Check Average: 5.93%
corn; pre-planting 50 pounds/Acre
  Yield: 162.57 Bushels/Acre
  Yield Increase Compared to Check Average: 5.21%
corn; pre-planting 100 pounds/Acre
  Yield: 160.94 Bushels/Acre
  Yield Increase Compared to Check Average: 4.15%
corn; pre-planting 150 pounds/Acre
  Yield: 165.35 Bushels/Acre
  Yield Increase Compared to Check Average: 7.01%
corn; pre-planting 200 pounds/Acre
  Yield: 164.24 Bushels/Acre
  Yield Increase Compared to Check Average: 6.29%
corn; pre-planting 250 pounds/Acre
  Yield: 166.53 Bushels/Acre
  Yield Increase Compared to Check Average: 7.77%
corn
  number of treatments showing yield improvement compared to check average: each of their six
wheat; pre-planting 25 pounds/Acre
  Yield: 57.25 Bushels/Acre
  Yield Increase Compared to Check Average: −11.65%
wheat; pre-planting 50 pounds/Acre
  Yield: 68.06 Bushels/Acre
  Yield Increase Compared to Check Average: 5.03%
wheat; pre-planting 100 pounds/Acre
  Yield: 67.59 Bushels/Acre
  Yield Increase Compared to Check Average: 4.31%
wheat; pre-planting 150 pounds/Acre
  Yield: 65.84 Bushels/Acre
  Yield Increase Compared to Check Average: 1.60%
wheat; pre-planting 200 pounds/Acre
  Yield: 62.49 Bushels/Acre
  Yield Increase Compared to Check Average: −3.56%
wheat; pre-planting 250 pounds/Acre
  Yield: 63.20 Bushels/Acre
  Yield Increase Compared to Check Average: −2.47%
wheat
  number of treatments showing yield improvement compared to check average: three of the six
[1]; sugar amount 50 pounds/acre
  CO2 Burst ppm: 49 ppm
  CO2 Increase as Compared to Check Average: 7.69%
[1]; sugar amount 150 pounds/acre
  CO2 Burst ppm: 45 ppm
  CO2 Increase as Compared to Check Average: −1.10%
[1]; sugar amount 250 pounds/acre
  CO2 Burst ppm: 55 ppm
  CO2 Increase as Compared to Check Average: 20.88%

## OC[C@H]1O[C@@](CO)(O[C@H]2O[C@H](CO)[C@@H](O)[C@H](O)[C@H]2O)[C@@H](O)[C@@H]1O [GS, sucrose]
corn; pre-planting 25 pounds/Acre
  Yield: 188.56 Bushels/Acre
  Yield Increase Compared to Check Average: 22.03%
corn; pre-planting 50 pounds/Acre
  Yield: 153.24 Bushels/Acre
  Yield Increase Compared to Check Average: −0.83%
corn; pre-planting 100 pounds/Acre
  Yield: 165.78 Bushels/Acre
  Yield Increase Compared to Check Average: 7.29%
corn; pre-planting 150 pounds/Acre
  Yield: 161.20 Bushels/Acre
  Yield Increase Compared to Check Average: 4.32%
corn; pre-planting 200 pounds/Acre
  Yield: 163.58 Bushels/Acre
  Yield Increase Compared to Check Average: 5.86%
corn; pre-planting 250 pounds/Acre
  Yield: 156.06 Bushels/Acre
  Yield Increase Compared to Check Average: 1.00%
corn
  number of treatments showing yield improvement compared to check average: five of the six
wheat; pre-planting 25 pounds/Acre
  Yield: 73.58 Bushels/Acre
  Yield Increase Compared to Check Average: 13.55%
wheat; pre-planting 50 pounds/Acre
  Yield: 70.01 Bushels/Acre
  Yield Increase Compared to Check Average: 8.04%
wheat; pre-planting 100 pounds/Acre
  Yield: 59.45 Bushels/Acre
  Yield Increase Compared to Check Average: −8.26%
wheat; pre-planting 150 pounds/Acre
  Yield: 66.65 Bushels/Acre
  Yield Increase Compared to Check Average: 2.85%
wheat; pre-planting 200 pounds/Acre
  Yield: 59.64 Bushels/Acre
  Yield Increase Compared to Check Average: −7.96%
wheat; pre-planting 250 pounds/Acre
  Yield: 59.73 Bushels/Acre
  Yield Increase Compared to Check Average: −7.82%
wheat
  number of treatments showing yield improvement compared to check average: three of the six
[1]; sugar amount 50 pounds/acre
  CO2 Burst ppm: 63 ppm
  CO2 Increase as Compared to Check Average: 38.46%
[1]; sugar amount 150 pounds/acre
  CO2 Burst ppm: 75 ppm
  CO2 Increase as Compared to Check Average: 64.84%
[1]; sugar amount 250 pounds/acre
  CO2 Burst ppm: 53 ppm
  CO2 Increase as Compared to Check Average: 16.48%
